These results are taken from patent US20090149482A1, “STEREOCHEMICALLY DEFINED DIPEPTIDE ESTERS OF ANTIVIRAL AGENTS FOR ENHANCED OCULAR TREATMENT” (priority 2001, published 2009).

For one data set, the target named is T1, hPEPT1 (Homo sapiens, UniProt P46059).
T1 construct: endogenous in cells; host or cells: Caco-2 (human colon carcinoma, ATCC)
T1 sequence (P46059 1-708): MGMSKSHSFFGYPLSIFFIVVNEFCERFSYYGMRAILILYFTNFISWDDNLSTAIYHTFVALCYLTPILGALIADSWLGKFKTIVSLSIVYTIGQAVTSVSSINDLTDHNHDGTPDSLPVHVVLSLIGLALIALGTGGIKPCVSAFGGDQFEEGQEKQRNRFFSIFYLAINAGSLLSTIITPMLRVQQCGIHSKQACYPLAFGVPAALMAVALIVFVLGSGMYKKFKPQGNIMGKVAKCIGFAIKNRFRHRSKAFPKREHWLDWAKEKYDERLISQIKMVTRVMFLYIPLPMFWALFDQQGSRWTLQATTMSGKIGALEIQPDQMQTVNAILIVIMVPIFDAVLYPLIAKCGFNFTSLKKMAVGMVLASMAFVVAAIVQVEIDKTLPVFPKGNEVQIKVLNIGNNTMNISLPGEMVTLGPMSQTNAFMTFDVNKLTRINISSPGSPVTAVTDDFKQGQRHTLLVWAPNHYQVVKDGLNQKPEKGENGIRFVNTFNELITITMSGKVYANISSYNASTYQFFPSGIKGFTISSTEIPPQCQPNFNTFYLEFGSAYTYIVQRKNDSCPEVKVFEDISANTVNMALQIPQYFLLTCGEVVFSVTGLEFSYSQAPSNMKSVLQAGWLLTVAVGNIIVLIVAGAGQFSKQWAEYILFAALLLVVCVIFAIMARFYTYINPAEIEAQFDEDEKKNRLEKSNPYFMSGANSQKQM
The experiment in a line: [3H] Glycylsarcosine uptake and its inhibition in Caco-2 cells (affinity towards peptide transporter). Format: cell-based. The note with it: for effect on the uptake of [3H] Gly-Sar: Caco-2, pH 6.0, 10 minutes; for Ki: read-out: Ki. The source says: Materials: [^3H] Glycylsarcosine (Gly-Sar; 4 Ci/mmol) was purchased from Moravek Biochemicals (Brea, Calif.) and [^14C] Mannitol (50 mCi/mmol) was supplied by Amersham (Piscataway, N.J.). Human colon carcinoma derived Caco-2 cells were obtained from American Type Culture Collection (ATCC, Rockville, Md.). The growth medium, Dulbecco's modified Eagle Medium was obtained from Life Technologies (Grand Island, N.Y.). […] Fetal bovine serum (FBS) was purchased from JRH Biosciences (Lenexa, Kans.). Culture flasks (75 cm^2 growth area), polyester Transwells® (pore size 0.4 Cm with diameter 6.5 mm) and polyester membranes (pore size 0.4 Cm) were procured from Costar (Bedford, Mass.). The buffer components and solvents were obtained from Fisher Scientific (St. Louis, Mo.). All the di-peptide esters of acyclovir were custom synthesized in our laboratory. […] Cell Culture: All cultures were maintained in humidified incubator at 37° C. with a 5% carbon dioxide in air atmosphere. Caco-2 cells were obtained at passage 25 from American Type Culture Collection (ATCC) and grown in plastic tissue culture flasks. […] When 80% confluent, these cells were removed by treating them with Trypsin/EDTA and plated at a density of 100,000 cells/cm^2 on collagen coated plastic dishes containing clear polyester membranes (0.636 cm^2, […]) or 12-well tissue culture treated plastic plates. Cells were then grown in medium containing 10% FBS (heat-inactivated). […] [^14C] […] Metabolism studies in Cell Suspensions: Confluent Caco-2 cells, grown in tissue culture flasks were isolated with the aid of mechanical scraper and washed thrice with DPBS. […] One-hundred micro-liters of samples were withdrawn at predetermined time intervals and the sample was purified by precipitating the cellular proteins into the organic solvent mixture and stored at −80° C. until further analysis. The protein content of the cell suspension was determined by the method of Bradford using bovine serum albumin as the standard (BioRad protein estimation kit, Hercules, Calif.). […] Transport studies: Transport experiments were done using Side-Bi-Side™ diffusion cells (type VSC-1, Crown Glass Company Inc.) and Transwell® inserts. Prior to the experiment with Gly-Sar, Caco-2 cell monolayers grown on the clear polyester membranes and Transwell® inserts were washed with DPBS (pH 6.0) and incubated at 37° C. Freshly prepared drug solutions in DPBS (pH 6.0) was placed in the donor chamber and the receiver chamber was filled with DPBS. The volumes of donor and receptor chambers were 3 ml each for Side-Bi-Side™ diffusion cells and 0.5 ml and 1.5 ml respectively for Transwell® inserts. […] The samples were stored at −80° C. until analyzed HPLC. All experiments were performed at 37° C. […] The concentration dependent uptake of glycylsarcosine was studied using [^3H] […] For Dixon plots and Dose Response studies [^3H] […] Following incubation, the cell monolayers were washed three times with ice-cold HEPES buffer to terminate the uptake experiment. After the washings cells were lysed overnight using 1 ml 0.1% (w/v) Triton X-100 in 0.3 N NaOH at room temperature. Aliquots (500 μl) from each well were then transferred to scintillation vials containing 5 ml scintillation cocktail (Fisher Scientific, Fairlawn, N.J.). […] The amount of protein in the cell lysate was measured by the BioRad protein estimation kit using bovine serum albumin as standard (BioRad Protein estimation Kit, Hercules, Calif.). Analytical Procedures: All samples were assayed using HPLC. […] The column used was a C18 Luna column 4.6×250 mm (Phenomenex). The mobile phase consisted of a mixture of buffer and an organic modifier. The percentage of organic phase was varied in order to elute compounds of interest.

A further data set is described as follows: in vitro. The conditions noted are these: human, Caco-2, pH 7.4.
Data set [1] concerns oligopeptide transporter on the rabbit cornea.
Data set [2] is described as follows: Plasma pharmacokinetics of stereoisomeric prodrugs following oral administration in rats.
For another data set, the system named is HCMV. The experiment in a line: In vitro antiviral screening, CPE inhibition in HFF cells. Format: cell-based, human cytomegalovirus. The note with it: Human betaherpesvirus 5, HFF; HCMV, CPE Inhibition.
Another data set concerns HSV-1 strain McKrae. The experiment in a line: HSV-1 epithelial keratitis rabbit model, topical treatment, SLE scores. The format is in vivo. The text has this:
The rabbit eye is an excellent model to study acute HSV-1 epithelial keratitis. Also, spontaneous and induced ocular HSV-1 shedding and corneal epithelial disease in rabbits has been used as a model of human ocular HSV-1 reactivation and recurrence. HSV-1 strain McKrae was used in studies for epithelial keratitis. HSV-1 strain RE was used for studies of HSV stromal keratitis.
i) Epithelial Keratitis: A group of ten rabbits was used to study each compound. Both eyes of all rabbits were used. An aqueous vehicle (like a placebo) and one positive control were obtained using 1% TFT (Viroptic®). Each compound at 1% concentration (TFT=33 mM, Gly-Gly-ACV=26.6 mM, Val-Val-ACV=18.6 mM) were applied (50 μl) topically 5 times per day every two hours starting at 8:00 a.m. and ending at 4:00 p.m. The treatment began on the 3rd post-inoculation day and continued for 5 consecutive days. Slit-lamp examinations were performed once every day for 8 days and thereafter once every other day until lesions resolved.

For data set [3] the following is noted: for first order hydrolytic rate constant k: 37° C.
Data set [4] deals with rabbit corneal cell line (SIRC). The conditions noted are these: SIRC cells.
Substrate in data set [5]: CN(CC(=O)O)C(=O)CN
The data set is described as follows: [3H] Glycylsarcosine uptake and its inhibition in Caco-2 cells (affinity towards peptide transporter). Format: cell-based, human. The conditions noted are these: other: Gly-Sar alone, 37.0 °C.

Setting [6] is: plasma analyte following oral administration of LDACV in rats.

Read-outs that look alike come from different tables or passages of the source. Marks after values point to notes of the source that are not given here. Where a SMILES comes first, the peptide text is derived from it. [ ]: non-standard residue; d: D form. Sar = CNCC(=O)O

In the case of `Nc1nc2c(ncn2COCCOC(=O)C(N)Cc2ccc(O)cc2)c(=O)[nH]1` (stereo not drawn) [tyrosine-ACV], the “effect on the uptake of [3H] Gly-Sar” value on hPEPT1 is on record as “did not inhibit”.

As for `Nc1nc2c(ncn2COCCOC(=O)CNC(=O)C(N)Cc2ccc(O)cc2)c(=O)[nH]1` (stereo not drawn) [Tyr-Gly-ACV], the “Vmax of Gly-Sar uptake in presence of the drug” value at hPEPT1 (Gly-Sar with drug (10 mM), Lineweaver-Burk) is 0.087 ± 0.09 µmol/min/mg. Also, the Ki was found to be 8230 ± 430 µM at hPEPT1 (Lineweaver-Burk) and 7990 ± 540 µM on hPEPT1 (Michaelis-Menten). Also, in the data set on Caco-2 cell suspension (Caco-2 cell suspension at pH 7.4, * = no intact drug detected during the experiment), the “10^2 × kobs” value came to 5.22 ± 0.58 min^−1mg^−1 protein. Further, the half-life at 0.2 mM in the data set “in vitro” worked out at 13.3 ± 1.5 min.

Regarding `CC(C)[C@H](N)C(=O)N[C@H](C(=O)O)C(C)C` [val-val, reference compound] (H-Val-Val-OH), on hPEPT1, the “effect on the uptake of [3H] Gly-Sar” value is recorded as “significantly inhibited”.

With `Nc1ccc(C(=O)NCC(=O)O)cc1` [PAH, para-aminohippuric acid, reference compound], in data set [1] (1 mM Val-ACV in presence of 10 mM compound), the “transport of Val-ACV (percent of control)” value is reported as 99.6±2.6% of control.

With `CN(CC(=O)O)C(=O)CN` [Gly-Sar, glycylsarcosine, reference compound] (H-Gly-[Sar]-OH), the “effect on the uptake of [3H] Gly-Sar” value on hPEPT1 is listed as “significantly inhibited”. For the same molecule, the “Kd (rate constant of nonsaturable uptake component)” value on hPEPT1 (Caco-2 uptake of glycylsarcosine) amounted to 12.2 ± 0.57 µL/min/mg. Moreover, the Ki was determined as 2350 ± 670 µM on hPEPT1 (Dixon); 2490 µM at hPEPT1 (Dose Response (Cheng and Prusoff from IC50)). Besides, the “Vmax of glycylsarcosine uptake” value at hPEPT1 (Gly-Sar alone, Michaelis-Menten) was 0.078 ± 0.005 µmol/min/mg. For the same molecule, at hPEPT1 (dose response curves, read-out: IC50 of inhibition of [3H] Gly-Sar uptake), the IC50 turned out to be 2780 ± 340 µM.

For `NCC(=O)OCCOCn1cnc2c(=O)[nH]c(N)nc21` [glycine-ACV], the “effect on the uptake of [3H] Gly-Sar” value at hPEPT1 is “did not inhibit”.

As to `CC[N+](CC)(CC)CC` [TEA, tetraethlyammonium, reference compound], the “transport of Val-ACV (percent of control)” value in [1] is recorded as 101.3±1.1% of control.

As for `CC(C)C(N)C(=O)NC(C(=O)OCCOCn1cnc2c(=O)[nH]c(N)nc21)C(C)C` [DLACV, D-valine-L-valine-acyclovir], in [2] (oral administration in rats), the “concentrations in the systemic circulation” value is on record as “Very little concentrations were observed”.

Consider `Nc1nc(O)c2ncn(COC(CO)CO)c2n1` [GCV, 2-amino-1,9-[[2-hydroxy-1-(hydroxymethyl)ethoxy]methyl]-6H-purin-6-one], for which, in the data set with HCMV, the 50% effective concentration (EC50) was 0.94 µM.

Turning to `NCC(=O)NCC(=O)OCCOCn1cnc2c(=O)[nH]c(N)nc21` [Gly-Gly-ACV], in the data set on HSV-1 strain McKrae, the “efficacy relative to TFT (SLE scores)” value is given as “more effective than TFT”. For the same molecule, the “Concentration required to achieve an SLE Score of 0.3” value in the data set on HSV-1 strain McKrae (14 days post-inoculation, 1% topical 5 times per day) is 26.6 mM. Also, the “stability as an ophthalmic solution” value in data set [3] (pH 5.6, concluded from rate constants) is on record as “stable for two years”. Also, the “first order hydrolytic rate constant k” value in data set [3] (pH 7.4) worked out at 6.75 k × 10^3 min^−1; in data set [3] (pH 9.0), 14.85 k × 10^3 min^−1. Further, the percent survival in data set [4] (0.25 mM) worked out at 104.6%; in data set [4] (0.5 mM), 94.7%; in [4] (1 mM), 90.1%; in data set [4] (2 mM), 86.2%; in data set [4] (5 mM), 63.8%; in data set [4] (10 mM) it was 49.32%. For the same molecule, in the data set on Caco-2 cell suspension (Caco-2 cell suspension), the “intact drug after incubation with the cell suspension” value is recorded as “no intact drug detected within one minute”.

On to `CC(C)[C@@H](N)C(=O)OCCOCn1cnc2c(=O)[nH]c(N)nc21` [DACV], for which, in data set [2] (setting [6]), the AUC was found to be 261.89 ± 23.64 µM·min, the Cmax was found to be 8.68 ± 1.24 µM and the Tmax is recorded as 15 min.

B1: hPEPT1 (Homo sapiens) (protein)
chain: T1 sequence (P46059 1-708)
notes: endogenous in cells; host or cells: Caco-2 (human colon carcinoma, ATCC)
On to B1, for which the values for the Km in data set [5] (Eadie-Hofstee), in data set [5] (Lineweaver-Burk (control)) and in [5] (Michaelis-Menten) were 1.42 ± 0.19 mM, 2.04 ± 0.61^a mM and 1.63 ± 0.25 mM, respectively. For the same molecule, the maximum rate (Vmax) in data set [5] (Eadie-Hofstee) worked out at 0.071 µmol/min/mg; in data set [5] (Lineweaver-Burk (control)), 0.086 µmol/min/mg; in data set [5] (Michaelis-Menten), 0.078 µmol/min/mg.
